Test system: Mice treated with HFD
Assay: not given
Conditions: HFD 8 weeks then daily intraperitoneal 20 mg/kg TNP and HFD for 18 days; cited from earlier work

SMILES	glucose tolerance and insulin sensitivity	serum insulin levels
O=[N+]([O-])c1ccc(CNc2nc(NCc3cccc(C(F)(F)F)c3)nc3nc[nH]c23)cc1 [TNP, N2-(m-trifluorobenzyl)-N6-(p-nitrobenzyl)purine]	improved	lower

Target: IP6K1 (Homo sapiens (Human), UniProt Q92551)
Assay: IP6K1 IC50 of compounds of Formula (IA) and Formula (IB)
Format: biochemical
Conditions: not given

IP6K1, sequence (Q92551 whole entry, species assumed): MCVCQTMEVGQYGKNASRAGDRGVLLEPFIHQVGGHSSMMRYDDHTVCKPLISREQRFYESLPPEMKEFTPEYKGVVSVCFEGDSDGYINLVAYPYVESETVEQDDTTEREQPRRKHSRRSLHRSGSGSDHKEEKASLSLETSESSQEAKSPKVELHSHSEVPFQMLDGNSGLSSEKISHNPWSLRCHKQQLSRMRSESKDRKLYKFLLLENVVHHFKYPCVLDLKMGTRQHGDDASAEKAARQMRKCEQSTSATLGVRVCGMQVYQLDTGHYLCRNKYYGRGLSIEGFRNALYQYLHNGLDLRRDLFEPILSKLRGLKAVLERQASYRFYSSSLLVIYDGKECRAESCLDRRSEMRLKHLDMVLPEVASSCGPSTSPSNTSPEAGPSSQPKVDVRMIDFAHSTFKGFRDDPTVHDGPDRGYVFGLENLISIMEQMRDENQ

SMILES	IP6K1 IC50	IC50 [µM]
O=C(O)c1ccc2c(c1)C1(CCN(S(=O)(=O)c3ccc(Cl)cc3)CC1)C(=O)N2 [Cmpd 1a, 1′-((4-chlorophenyl)sulfonyl)-2-oxospiro[indoline-3,4′-piperidine]-5-carboxylic acid]	+ +	
O=C(O)c1ccc2[nH]c(=O)n(C3CCN(C(=O)c4ccccc4Cl)CC3)c2c1 [Cmpd 1b, 3-(1-(2-chlorobenzoyl)piperidin-4-yl)-2-oxo-2,3-dihydro-1H-benzo[d]imidazole-5-carboxylic acid]	+ +	
O=C(O)c1ccc2c(c1)C1(CCN(C(=O)c3ccc(Cl)cc3)CC1)C(=O)N2 [Cmpd 2a, 1′-(4-chlorobenzoyl)-2-oxospiro[indoline-3,4′-piperidine]-5-carboxylic acid]	+ + +	
COC(=O)c1ccc2c(c1)C1(CCN(C(=O)c3ccc(Cl)cc3)CC1)C(=O)N2 [Cmpd 3a, Methyl 1′-(4-chlorobenzoyl)-2-oxospiro[indoline-3,4′-piperidine]-5-carboxylate]		3 to 30
O=C(O)c1ccc2[nH]c(=O)n(C3CCN(C(=O)c4ccc(Cl)cc4Cl)CC3)c2c1 [Cmpd 3b, 3-(1-(2,4-dichlorobenzoyl)piperidin-4-yl)-2-oxo-2,3-dihydro-1H-benzo[d]imidazole-5-carboxylic acid]	+ + +	
O=C(O)c1ccc2c(c1)C1(CCN(C(=O)Cc3ccc(Cl)cc3)CC1)C(=O)N2 [Cmpd 4a, 1′-(2-(4-chlorophenyl)acetyl)-2-oxospiro[indoline-3,4′-piperidine]-5-carboxylic acid]	+ +	
O=C(O)c1ccc2c(c1)C1(CCN(Cc3ccc(Cl)cc3)CC1)C(=O)N2 [Cmpd 5a, 1′-(4-chlorobenzyl)-2-oxospiro[indoline-3,4′-piperidine]-5-carboxylic acid]	+ +	
O=C(O)c1ccc2[nH]c(=O)n([C@H]3CC[C@H](Oc4ncc(Cl)cc4Cl)CC3)c2c1 [Cmpd 5b, 3-((1r,4r)-4-((3,5-dichloropyridin-2-yl)oxy)cyclohexyl)-2-oxo-2,3-dihydro-1H-benzo[d]imidazole-5-carboxylic acid]	+ + +	
O=C(O)c1ccc2c(c1)C1(CCN(C(=O)c3ncc(Cl)cc3Cl)CC1)C(=O)N2 [Cmpd 6a, 1′-(3,5-dichloropicolinoyl)-2-oxospiro[indoline-3,4′-piperidine]-5-carboxylic acid]	+ + +	
O=C(O)c1ccc2[nH]c(=O)n([C@H]3CC[C@@H](Oc4ncc(Cl)cc4Cl)CC3)c2c1 [Cmpd 6b, 3-((1s,4s)-4-((3,5-dichloropyridin-2-yl)oxy)cyclohexyl)-2-oxo-2,3-dihydro-1H-benzo[d]imidazole-5-carboxylic acid]	+ + +	
O=C(O)c1ccc2c(c1)C1(CCN(C(=O)Nc3ccc(Cl)cc3)CC1)C(=O)N2 [Cmpd 7a, 1′-((4-chlorophenyl)carbamoyl)-2-oxospiro[indoline-3,4′-piperidine]-5-carboxylic acid]	+ + +	
O=C(O)c1cc2c(cc1F)[nH]c(=O)n2[C@H]1CC[C@H](Oc2ncc(Cl)cc2Cl)CC1 [Cmpd 7b, 3-((1r,4r)-4-((3,5-dichloropyridin-2-yl)oxy)cyclohexyl)-6-fluoro-2-oxo-2,3-dihydro-1H-benzo[d]imidazole-5-carboxylic acid]	+ + +	
O=C(O)c1ccc2c(c1)C1(CCN(C(=O)c3ccc(C(F)(F)F)cc3)CC1)C(=O)N2 [Cmpd 8a, 2-oxo-1′-(4-(trifluoromethyl)benzoyl)spiro[indoline-3,4′-piperidine]-5-carboxylic acid]	+ + +	
O=C(O)c1ccc2[nH]c(=O)n(CCOc3ccc(Cl)cc3)c2c1 [Cmpd 8b, 3-(2-(4-chlorophenoxy)ethyl)-2-oxo-2,3-dihydro-1H-benzo[d]imidazole-5-carboxylic acid]	+ +	
O=C(O)c1ccc2c(c1)C1(CCN(C(=O)COc3ccc(Cl)cc3)CC1)C(=O)N2 [Cmpd 9a, 1′-(2-(4-chlorophenoxy)acetyl)-2-oxospiro[indoline-3,4′-piperidine]-5-carboxylic acid]	+ +	
O=C(O)c1ccc2[nH]c(=O)n(CCCOc3ncc(Cl)cc3Cl)c2c1 [Cmpd 9b, 3-(3-((3,5-dichloropyridin-2-yl)oxy)propyl)-2-oxo-2,3-dihydro-1H-benzo[d]imidazole-5-carboxylic acid]	+ + +	

SMILES	IP6K1 IC50	IC50 [µM]
O=C(O)c1ccc2c(c1)C1(CCN(C(=O)C3CC3)CC1)C(=O)N2 [Cmpd 10a, 1′-(cyclopropanecarbonyl)-2-oxospiro[indoline-3,4′-piperidine]-5-carboxylic acid]		3 to 30
O=C(O)c1ccc2[nH]c(=O)n(C3CN(C(=O)c4ccc(Cl)cc4Cl)C3)c2c1 [Cmpd 10b, 3-(1-(2,4-dichlorobenzoyl)azetidin-3-yl)-2-oxo-2,3-dihydro-1H-benzo[d]imidazole-5-carboxylic acid]	+ +	
O=C(O)c1ccc2[nH]c(=O)n(C3CN(Cc4ccc(Cl)cc4Cl)C3)c2c1 [Cmpd 11b, 3-(1-(2,4-dichlorobenzyl)azetidin-3-yl)-2-oxo-2,3-dihydro-1H-benzo[d]imidazole-5-carboxylic acid]	+ +	
CC(=O)N1CCC2(CC1)C(=O)Nc1ccc(C(=O)O)cc12 [Cmpd 12a, 1′-acetyl-2-oxospiro[indoline-3,4′-piperidine]-5-carboxylic acid]		3 to 30
O=C(O)c1ccc2[nH]c(=O)n([C@H]3CCN(C(=O)c4ccc(Cl)cc4Cl)C3)c2c1 [Cmpd 12b, (S)-3-(1-(2,4-dichlorobenzoyl)pyrrolidin-3-yl)-2-oxo-2,3-dihydro-1H-benzo[d]imidazole-5-carboxylic acid]	+ +	
CC(C)C(=O)N1CCC2(CC1)C(=O)Nc1ccc(C(=O)O)cc12 [Cmpd 13a, 1′-isobutyryl-2-oxospiro[indoline-3,4′-piperidine]-5-carboxylic acid]		3 to 30
O=C(O)c1ccc2[nH]c(=O)n([C@H]3CCN(Cc4ccc(Cl)cc4Cl)C3)c2c1 [Cmpd 13b, (S)-3-(1-(2,4-dichlorobenzyl)pyrrolidin-3-yl)-2-oxo-2,3-dihydro-1H-benzo[d]imidazole-5-carboxylic acid]	+ +	
O=C(O)c1ccc2c(c1)C1(CCN(C(=O)c3ccccc3Cl)CC1)C(=O)N2 [Cmpd 14a, 1′-(2-chlorobenzoyl)-2-oxospiro[indoline-3,4′-piperidine]-5-carboxylic acid]	+ +	
O=C(O)c1ccc2[nH]c(=O)n([C@@H]3CCN(C(=O)c4ccc(Cl)cc4Cl)C3)c2c1 [Cmpd 14b, (R)-3-(1-(2,4-dichlorobenzoyl)pyrrolidin-3-yl)-2-oxo-2,3-dihydro-1H-benzo[d]imidazole-5-carboxylic acid]	+ +	
O=C(O)c1ccc2c(c1)C1(CCN(Cc3ccccc3Cl)CC1)C(=O)N2 [Cmpd 15a, 1′-(2-chlorobenzyl)-2-oxospiro[indoline-3,4′-piperidine]-5-carboxylic acid]	+ +	
O=C(O)c1ccc2[nH]c(=O)n([C@@H]3CCN(Cc4ccc(Cl)cc4Cl)C3)c2c1 [Cmpd 15b, (R)-3-(1-(2,4-dichlorobenzyl)pyrrolidin-3-yl)-2-oxo-2,3-dihydro-1H-benzo[d]imidazole-5-carboxylic acid]	+ +	
O=C(O)c1ccc2c(c1)[nH]c(=O)n2C1CCN(C(=O)c2ccc(Cl)cc2Cl)CC1 [Cmpd 16b, 1-(1-(2,4-dichlorobenzoyl)piperidin-4-yl)-2-oxo-2,3-dihydro-1H-benzo[d]imidazole-5-carboxylic acid]	+ +	
O=C(O)c1ccc2c(c1)C1(CCN(C(=O)c3ccc(Cl)cc3Cl)CC1)C(=O)N2 [Cmpd 17a, 1′-(2,4-dichlorobenzoyl)-2-oxospiro[indoline-3,4′-piperidine]-5-carboxylic acid]	+ + +	
O=C(O)c1ccc2[nH]c(=O)n(CC3CCN(Cc4ccc(Cl)cc4Cl)C3)c2c1 (stereo not drawn) [Cmpd 18b, 3-((1-(2,4-dichlorobenzyl)pyrrolidin-3-yl)methyl)-2-oxo-2,3-dihydro-1H-benzo[d]imidazole-5-carboxylic acid]		3 to 30
O=C(O)c1ccc2[nH]c(=O)n(CC3CCN(C(=O)c4ccc(Cl)cc4Cl)C3)c2c1 (stereo not drawn) [Cmpd 19b, 3-((1-(2,4-dichlorobenzoyl)pyrrolidin-3-yl)methyl)-2-oxo-2,3-dihydro-1H-benzo[d]imidazole-5-carboxylic acid]	+ +	

Source: US20250197396A1, “COMPOUNDS FOR INHIBITING INOSITOL HEXAKISPHOSPHATE KINASE (IP6K) AND METHODS OF USE THEREOF” (Lieber Institute, Inc., priority 2020, published 2025)
